≈ marks a conversion by molar mass, not a printed value.
Tested on: host cells
Test: Inhibition of host cells by myrcene during fermentation
Format: cell-based
Conditions: host cells in fermentation; read-out: IC50 (inhibitory to host cells)

C=CC(=C)CCC=C(C)C [Myrcene, myrcene] gave an IC50 of 50 to 100 µg/mL (≈ 367 to 734 µM).

— US20260071239A1, “COMPOSITIONS AND METHODS FOR IMPROVED CELL CULTURE EFFICIENCY” (Amyris, Inc., priority 2022, published 2026)
